Measurements taken from US6867305B2, “Synthesis of epothilones, intermediates thereto and analogues thereof” (Sloan-Kettering Institute for Cancer Research, priority 1996, dated 2005).
Where two headings read alike, the source gives them in different places.

How the values were obtained:
[1] = tested on: DC-3F hamster lung fibroblasts; test: Tumor cell growth inhibition in vitro; assay type: cell-based
Experimental: (§1) The fresh medium containing each drug was replenished every 7-14 days. […] In each case ,the drug-exposed cells were resuspended in fresh media for a minimum of 4 days before the experiments for the cell-growth inhibition was carried out.
(§2) The cells were cultured at an initial density of 2-5×10^4 cells per ml. They were maintained in a 5% CO2-humidified atmosphere at 37° C. in RPMI mediun 1640 (GIBCO/BRL) containing penicillin (100 units/ml), streptomycin (100 μg/ml) (GIBCO/BRL), and 5% heat-inactivated fetal bovine serum. For solid tumor cells growing in a monolayer (such as MCF-7/Adr), cytotoxicitiy of the drug was determined in 96-well microtiter plates by using the sulforhodamine B method as described by Skehan et al (23) for measuring the cellular protein content. For cells that were grown in suspension (such as CCRF-CEM and its sublines), cytotoxicitiy was measured by using the 2,-3-bis(2-methoxy-4-nitro-5-sulfophenyl)-5carboxanilide)-2H terazodium hydroxide (XTT)-microculture tetrazonium method (24) in duplicate in 96-well microtiter plates. For both methods, the absorbance of each well was measured with a microplate reader (EL-340, Bio-Tek, Burlington, Vt.). Each run entailed six or seven concentrations of the tested drugs. Dose-effect relationship data were analyzed with the median-effect plot (25) by using a previously described computer program (26).

DC-3F/ADX = test: Tumor cell growth inhibition in vitro; assay type: cell-based, hamster; settings: for cross-resistance (fold of resistance vs parent cell line): DC-3F/ADX vs DC-3F; for IC50: DC-3F/ADX
Experimental: as §1, §2

[2] = Stability in plasma in vitro (HPLC); assay type: in vitro ADME, mouse
Experimental: (FIG. 44). […] (FIG. 44).
Human blood plasma or nude mice plasma (300 μl) containing dEpoB (0.05-20 μg/ml) was added 30 μl of methanol and mixed for 2 min and then added 300 μl of methanol. The centrifuge supernatant was used for high performance liquid chromatography (HPLC). Nova-pak C18 column (15 cm) was used, with 50% acetonitrile/water with 0.8% triethylamine and 0.2% phosphoric acid as mobile phase. UV absorbance at 250 nm was measured.
Stability of dEpoF in animal plasmas. A HPLC method is set up using a NovaPak C 18, 3.9×300 mm column with a mobile phase of 50% acetonitrile in 50 mM potassium dihydrogen phosphate with 0.01% triethylamine at a flow rate of 0.8 ml/min. dEpoF is monitored at a wavelength of 260 nm and has a retention time of about 10 min. The plasma stability is performed with mouse plasma and dog plasma purchased from Pel-Freeze and human plasma from the blood center in MSKCC. A small amount of dEpoF was dissolved in 50% methanol/water at a concentration of 500 μg/mL. An aliquot of 20 μL is then spiked to 2 mL of plasma to a final plasma concentration of 5 μg/mL. The plasma samples were kept at 37 degree. […] Twenty μL of the supernatant was analyzed by HPLC without further modification. dEpoF disappears rapidly with half life about one hour in the commercial frozen mouse plasma alone, but stable in dog and human plasma.

CCRF-CEM/VBL = test: Relative potency in vitro, very highly resistant MDR cells; assay type: cell-based, human; settings: for IC50: Homo sapiens, CCRF-CEM, read-out: CCRF-CEM/VBL IC50 in μM; for Fold of Resistance (B)/(A): [IC50 CCRF-CEM/VBL]/[IC50 CCRF-CEM]
Experimental: as §2

[3] = tested on: CCRF-CEM/Taxol leukemia xenograft; test: Human tumor xenograft in nude mice; assay type: in vivo; settings: for Lowest Average Tumor Size (T/C) / Tumor Disappearance: CCRF/Taxol, dEpoB 30 mg/kg, Taxol 20 mg/kg, Q2Dx5, 6-hr i.v. infusion
Experimental: (§3) Depending on the tumor type, treatment started on day 10 to day 21 when subcutaneous tumor size reached 35-200 mm^3, except otherwise indicated. Tumor size and body-weight were recorded every other day (Q2D) and, for humane reasons, the animals were sacrificed when tumor size reached ≧10% of body-weight. Each group, including untreated control, consisted of 3-5 animals unless otherwise indicated.
(§4) Athymic nude mice bearing the nu/nu gene were used for all human tumor xenografts. Outbred, Swiss-background mice were obtained from Charles River Laboratories. Male mice 8 weeks or older weighing 22 g and up were used for most experiments. The drug was administered via the tail vein for 6 hr.-i.v. infusion. Each individual mouse was confined in a perforated Falcon polypropylene tube restrainer for drug administration. Tumor volume was assessed by measuring length×width×height (or width) using a caliper. The programmable Harvard PHD2000 syringe pump (Harvard Apparatus) with multi-track was used for i.v. infusion. […] All animal studies were conducted in accordance with the guidelines of the National Institutes of Health “Guide for the Care and Use of Animals” and the protocol approved by the Memorial Sloan-Kettering Cancer Center's Institutional Animal Care and Use Committee. In keeping with the policy of this committee for the humane treatment of tumor-bearing animals, mice were euthanized when tumors reached ≧10% of their total body weight.
(§5) Human tumor cells (5×10^6) or tumor tissue (30-50 mg) were implanted s.c. flank in nu/nu mice (Charles River Laboratories, Wilmington, Mass.). When tumor grew to a specified size, treatment was started by every-other day×5 with 6 hr i.v.-infusion, unless otherwise indicated. Tumor volume was measured with calipers in three dimensions (length×width×height or width). Body-weight changes and lethality were monitored every other day.

[4] = tested on: CCRF-CEM/VBL leukemia xenograft; test: Human tumor xenograft in nude mice; assay type: in vivo; settings: for Lowest Average Tumor Size (T/C) / Tumor Disappearance: CCRF/VBL, dEpoB 30 mg/kg, Taxol 20 mg/kg, Q2Dx5, 6-hr i.v. infusion
Experimental: as §3, §4, §5

[5] = tested on: HL-60 promyelocytic leukemia xenograft; test: Human tumor xenograft in nude mice; assay type: in vivo
Experimental: as §3, §4, §5

[6] = tested on: PC-3 prostate adenocarcinoma xenograft; test: Human tumor xenograft in nude mice; assay type: in vivo
Experimental: as §3, §4, §5

[7] = tested on: HT-29 colon adenocarcinoma xenograft; test: Human tumor xenograft in nude mice; assay type: in vivo
Experimental: as §3, §4, §5

[8] = tested on: A549 lung carcinoma xenograft; test: Human tumor xenograft in nude mice; assay type: in vivo
Experimental: as §3, §4, §5

[9] = HL-60, dEpoB 30 mg/kg, Taxol 20 mg/kg, Q2Dx5, 6-hr i.v. infusion
[10] = PC-3, dEpoB 40 mg/kg, Taxol 15 mg/kg, Q2Dx3, 6-hr i.v. infusion
[11] = HT-29, dEpoB 30 mg/kg, Taxol 15 mg/kg, Q2Dx6, 6-hr i.v. infusion
[12] = A549, dEpoB 40 mg/kg, Taxol 15 mg/kg, Q2Dx3, 6-hr i.v. infusion

## C/C(=C\c1csc(C)n1)C1C[C@@H]2O[C@]2(C)CCC[C@H](C)[C@H](O)[C@@H](C)C(=O)C(C)(C)C(O)CC(=O)N1 (some centres unmarked) [aza-EpoB, aza-epothilone B]
[1]; Mesocricetus auratus, DC3F, read-out: IC50
  IC50: 8.7 nM
DC-3F/ADX
  cross-resistance (fold of resistance vs parent cell line): 33.1 x
DC-3F/ADX; listed as 15-aza-EpoB
  cross-resistance (fold of resistance vs parent cell line): 274 x
DC-3F/ADX; listed as 15-aza-EpoB, read-out: IC50
  IC50: 2380 nM
DC-3F/ADX; read-out: IC50
  IC50: 288 nM

## C/C1=C/C[C@@H](/C(C)=C/c2csc(CO)n2)OC(=O)C[C@H](O)C(C)(C)C(=O)[C@H](C)[C@@H](O)[C@@H](C)CCC1 [dEpoF, 12,13-Desoxyepothilone F]
[2]; commercial frozen mouse plasma, 5 μg/mL, 37 degree
  half life in mouse plasma: about one
CCRF-CEM/VBL
  IC50: 0.287 µM
  Fold of Resistance (B)/(A): 33.6 x
CCRF-CEM/VBL; MDR CCRF-CEM/VBL cells
  potency relative to dEpoB (times less potent): 4.5 ×

## CC(=O)O[C@H]1C(=O)[C@@]2(C)[C@H]([C@H](OC(=O)c3ccccc3)[C@]3(O)C[C@H](OC(=O)[C@H](O)[C@@H](NC(=O)c4ccccc4)c4ccccc4)C(C)=C1C3(C)C)[C@]1(OC(C)=O)CO[C@@H]1C[C@@H]2O [Taxol, paclitaxel, reference compound]
[3]
  Lowest Average Tumor Size (T/C): 0.32
  Tumor Disappearance: 0/2
[4]
  Lowest Average Tumor Size (T/C): 0.62
  Tumor Disappearance: 0/2
[5]; [9]
  Tumor Disappearance: 4/4
[6]; [10]
  Tumor Disappearance: 0/4
[7]; [11]
  Tumor Disappearance: 0/4
[8]; [12]
  Tumor Disappearance: 2/4
DC-3F/ADX
  IC50: 583 nM
DC-3F/ADX; listed as Paclitaxel
  IC50: 20200 nM

## C/C1=C/C[C@@H](/C(C)=C/c2csc(C)n2)OC(=O)C[C@H](O)C(C)(C)C(=O)[C@H](C)[C@@H](O)[C@@H](C)CCC1 [dEpoB, 12,13-desoxyepothilone B]
[3]; CCRF-CEM/Taxol, i.v. infusion
  Therapeutic Effect Rank Order: dEpoB>>>Taxol
[3]
  Lowest Average Tumor Size (T/C): 0
  Tumor Disappearance: 3/3
[4]; CCRF-CEM/VBL, i.v. infusion
  Therapeutic Effect Rank Order: dEpoB>>>Taxol
[4]
  Lowest Average Tumor Size (T/C): 0
  Tumor Disappearance: 2/2
[5]; HL-60, i.v. infusion
  Therapeutic Effect Rank Order: Taxol≧ dEpoB
[5]; [9]
  Lowest Average Tumor Size (T/C): 0.01
  Tumor Disappearance: 2/3
[6]; PC-3, i.v. infusion
  Therapeutic Effect Rank Order: Taxol, VBL>dEpoB>>VP-16
[6]; PC-3, i.v. or i/p.
  Therapeutic Effect Rank Order: Taxol>dEpoB>>Adriamycin
[6]; PC-3, dEpoB 40 mg/kg, Taxol 15 mg/kg, Q2Dx3
  Therapeutic Effects dEpoB vs Taxol: <<
[6]; [10]
  Lowest Average Tumor Size (T/C): 0.12
  Tumor Disappearance: 0/3
[7]; HT-29, i.v. infusion
  Therapeutic Effect Rank Order: Taxol>dEpoB
[7]; [11]
  Lowest Average Tumor Size (T/C): 0.02
  Tumor Disappearance: 0/3
[8]; A549, i.v. infusion
  Therapeutic Effect Rank Order: Taxol, dEpoB, VBL>VP-16
[8]; [12]
  Lowest Average Tumor Size (T/C): 0.01
  Tumor Disappearance: 1/3
[1]
  IC50: 2.5 nM
[1]; Mesocricetus auratus, DC3F
  IC50: 1.9 nM
[2]; nude, mouse, plasma, nude mice plasma, HPLC, read-out: t1/2 in nude mice plasma in vitro
  half-life: ~20 min
CCRF-CEM/VBL
  IC50: 0.637 µM
  Fold of Resistance (B)/(A): 8.6 x
